Results as given in US8703951B2, “Synthesis of 4H-benzo[D]pyrrolo[1,2-A]thiazoles and indolizino[6,7-b]indole derivatives and their use as antitumor therapeutic agents” (Academia Sinica, priority 2011, dated 2014).
Read-outs that look alike come from different tables or passages of the source.

Experiments:
[1] = test system: non-small cell lung carcinoma H1299; assay: In vitro cytotoxicity, Alamar blue assay, H1299; assay type: cell-based, human
Method: (§1) Prostate cancer PC3, non-small cell lung carcinoma cells H1299, and human glioma cells U87 were purchased from the American Type Culture Collection (Rockville, Md.). OECM-1 (human gingival squamous cell carcinoma cells) was obtained from Dr C.-L. Meng (National Defense Medical College, Taiwan).^22
(§2) In preparation for in vitro cytotoxicity assays, cells were cultured at an initial density 2−5×10^4 cells per milliliter. They were maintained in a 5% CO2-humidified atmosphere at 37° C. in RPMI medium 1640 (GIBCO/BRL) containing penicillin (100 units/mL), streptomycin (100 μg/mL, GIBCO/BRL), and 5% heat-inactivated FBS. For cells grown in suspension (such as CCRF-CEM and its sublines), cytotoxicity was measured, by using XTT microculture method^23 in 96-well microtiter plates.
(§3) The cytotoxic effects of the newly synthesized compounds were determined in T-cell acute lymphocytic leukemia (CCRF-CEM) and their resistant subcell lines (CCRF-CEM/Taxol and CCRF-CEM/VBL) by the XTT assay^24 and human solid tumor cells (i.e. breast carcinoma MX-1 and colon carcinoma HCT-116) by the SRB assay^25 in a 72 h incubation using a microplate spectrophotometer as described previously.^25 After the addition of phenazine methosulfate-XTT solution, incubated at 37° C. for 6 h and absorbance at 450 and 630 nm was detected on a microplate reader (EL 340). The cytotoxicity of the newly synthesized compounds against non-small cell lung carcinoma H1299, prostate cancer PC3, oral cancer OECM-1 and glioma U87 were determined by the Alamar blue assay^26 in a 72 h incubation using a microplate spectrophotometer as described previously. After the addition of alamar blue solution, it was incubated at 37° C. for 6 h. Absorbance at 570 and 600 nm was detected on a microplate reader. IC50 values were determined from dose-effect relationship at six or seven concentrations of each drug using the CompuSyn software by Chou and Martin^27 based on the median-effect principle and plot.^28,29 Ranges given for Cisplatin were mean±SE (n=4).

prostate cancer PC3 = assay: In vitro cytotoxicity, Alamar blue assay, PC3; assay type: cell-based, human
Method: as §1, §2, §3

glioma U87 = assay: In vitro cytotoxicity, Alamar blue assay, U87; assay type: cell-based, human
Method: as §1, §2, §3

oral cancer OECM-1 = assay: In vitro cytotoxicity, Alamar blue assay, OECM-1; assay type: cell-based, human
Method: as §1, §2, §3

CCRF-CEM/Taxol = assay: In vitro cytotoxicity, XTT assay, CCRF-CEM/Taxol; assay type: cell-based, human; conditions: Table 5; for IC50: Taxol-resistant subline, XTT, 72 h, read-out: Cell Growth inhibition (IC50 μM) CCRF-CEM/Taxol; for fold of cross-resistant vs IC50 of the parent cell line, CCRF-CEM/Taxol: number in brackets
Text: (§4) Human colon carcinoma HCT-116 cells and human prostate adenocarcinoma PC-3 cells were obtained from American Type Culture Collection (ATCC, Rockville, Md.). Human mammary carcinoma (MX-1) tumor cells were obtained from MSKCC cell bank. The CCRF-CEM human lymphoblastic leukemia cells and their vinblastine resistant subline (CCRF-CEM/VBL, 680-fold resistance in vitro) were obtained from Dr. William Beck of the University of Illinois, Chicago, and CCRF-CEM/Taxol (330-fold resistance in vitro). Resistant cells CCRF-CEM/taxol were produced by exposing the parent cells to increasing sublethal concentration (IC50-IC90) of paclitaxel for six months.
as §2, §3

breast carcinoma MX-1 = assay: In vitro cytotoxicity, SRB assay, MX-1; assay type: cell-based, human
Text: as §4, §2, §3

CCRF-CEM/VBL = assay: In vitro cytotoxicity, XTT assay, CCRF-CEM/VBL; assay type: cell-based, human; conditions: Table 5; for IC50: vinblastine-resistant subline, XTT, 72 h, read-out: Cell Growth inhibition (IC50 μM) CCRF-CEM/VBL; for fold of cross-resistant vs IC50 of the parent cell line, CCRF-CEM/VBL: number in brackets
Text: as §4, §2, §3

[2] = test system: human lymphoblastic leukemia (CCRF-CEM); assay: In vitro cytotoxicity, XTT assay, CCRF-CEM; assay type: cell-based
Text: as §4, §2, §3

colon carcinoma HCT-116 = assay: In vitro cytotoxicity, SRB assay, HCT-116; assay type: cell-based, human
Text: as §4, §2, §3

[3] = Homo sapiens, CCRF-CEM, Table 5, 72 h incubation, read-out: Cell Growth inhibition (IC50 μM) CCRF-CEM
[4] = Homo sapiens, HCT-116, Table 6, 72 h
[5] = Homo sapiens, NCI-H1299, Table 6, 72 h
[6] = Homo sapiens, OECM1, Table 6, 72 h
[7] = Table 5, 72 h incubation, read-out: Cell Growth inhibition (IC50 μM) CCRF-CEM
[8] = Table 7, 72 h, read-out: IC50 (μM) CCRF/CEM

| SMILES | IC50 ([1]; Table 6, 72 h) [µM] | IC50 (prostate cancer PC3; Table 6, 72 h) [µM] | IC50 (glioma U87; Table 6, 72 h) [µM] | IC50 (oral cancer OECM-1; Table 6, 72 h) [µM] | IC50 (CCRF-CEM/Taxol; Homo sapiens, CCRF-CEM) [µM] | fold of cross-resistant vs IC50 of the parent cell line, CCRF-CEM/Taxol (CCRF-CEM/Taxol) [×] | IC50 (CCRF-CEM/VBL; Homo sapiens, CCRF-CEM) [µM] | fold of cross-resistant vs IC50 of the parent cell line, CCRF-CEM/VBL (CCRF-CEM/VBL) [×] | IC50 [2, 3] [µM] | IC50 (CCRF-CEM/Taxol) [µM] | IC50 (CCRF-CEM/VBL) [µM] | IC50 [2, 7] [µM] | other results |
| --- | --- | --- | --- | --- | --- | --- | --- | --- | --- | --- | --- | --- | --- |
| N.N.[Cl][Pt][Cl] [Cisplatin, reference compound] | 16.5 ± 0.9 | 4.71 ± 0.66 | 54.6 ± 3.33 | 2.44 ± 0.53 |  |  |  |  |  |  |  |  | IC50 ([1]; Table 7, 72 h): 16.5 ± 0.9 µM; IC50 (prostate cancer PC3; Table 7, 72 h): 4.71 ± 0.66 µM; IC50 (glioma U87; Table 7, 72 h): 54.6 ± 3.33 µM; IC50 (oral cancer OECM-1; Table 7, 72 h, read-out: IC50 (μM) OECM1): 2.44 ± 0.53 µM |
| Cc1c(CO)c(CO)c2sc3ccccc3n12 [Compound 18a, (1-Methylbenzo[d]pyrrolo[2,1-b]thiazole-2,3-diyl)dimethanol] |  |  |  |  | 1.88 ± 0.007 | 1.93 | 1.86 ± 0.01 | 1.91 | 0.97 ± 0.03 |  |  |  | IC50 (breast carcinoma MX-1; Homo sapiens, Table 6, 72 h): 7.1 ± 0.037 µM; IC50 (colon carcinoma HCT-116; [4]): 4.44 ± 0.08 µM |
| OCc1c(CO)c2sc3ccccc3n2c1-c1ccc(F)cc1 [Compound 18b, (1-(4-Fluorophenyl)benzo[d]pyrrolo[2,1-b]thiazole-2,3-diyl)dimethanol] |  |  |  |  | 2.56 ± 0.012 | 2.41 | 3.72 ± 0.175 | 3.50 | 1.06 ± 0.04 |  |  |  | IC50 [1, 5]: 9.27 ± 1.69 µM; IC50 (breast carcinoma MX-1; Homo sapiens, Table 6, 72 h): 2.77 ± 0.005 µM; IC50 (prostate cancer PC3; Homo sapiens, Table 6, 72 h): 13.8 ± 2.15 µM; IC50 (glioma U87; Homo sapiens, Table 6, 72 h): 15.5 ± 1.31 µM; IC50 (oral cancer OECM-1; [6]): 6.03 ± 1.2 µM; IC50 (colon carcinoma HCT-116; [4]): 9.59 ± 0.19 µM |
| OCc1c(CO)c2sc3ccccc3n2c1-c1ccc(F)c(F)c1 [Compound 18d, (1-(3,4-Difluorophenyl)benzo[d]pyrrolo[2,1-b]thiazole-2,3-diyl)dimethanol] |  |  |  |  | 0.19 ± 0.004 | 100 | 0.28 ± 0.006 | 1.47 | 0.19 ± 0.02 |  |  |  | IC50 [1, 5]: 21.4 ± 3.74 µM; IC50 (prostate cancer PC3; Homo sapiens, Table 6, 72 h): 15.2 ± 1.86 µM; IC50 (glioma U87; Homo sapiens, Table 6, 72 h): 17.4 ± 1.86 µM; IC50 (oral cancer OECM-1; [6]): 8.48 ± 0.67 µM |
| OCc1c(CO)c2sc3ccccc3n2c1C1CC1 [Compound 18j, (1-Cyclopropylbenzo[d]pyrrolo[2,1-b]thiazole-2,3-diyl)dimethanol] |  |  |  |  | 2.31 ± 0.0048 | 2.37 | 2.44 ± 0.01 | 2.51 | 0.97 ± 0.07 |  |  |  | IC50 [1, 5]: 13.3 ± 2.23 µM; IC50 (prostate cancer PC3; Homo sapiens, Table 6, 72 h): 10.7 ± 2.29 µM; IC50 (glioma U87; Homo sapiens, Table 6, 72 h): 28.7 ± 4.32 µM; IC50 (oral cancer OECM-1; [6]): 7.12 ± 0.95 µM |
| CCNC(=O)OCc1c(COC(=O)NCC)c2sc3ccccc3n2c1C [Compound 19a, (1-Methylbenzo[d]pyrrolo[2,1-b]thiazole-2,3-diyl)bis(methylene)bis(ethylcarbamate)] |  |  |  |  |  | 1.30 |  | 1.30 |  | 0.45 ± 0.013 | 0.43 ± 0.003 | 0.33 ± 0.01 |  |
| CCNC(=O)OCc1c(COC(=O)NCC)c2sc3ccccc3n2c1-c1ccc(F)cc1 [Compound 19b, (1-(4-Fluorophenyl)benzo[d]pyrrolo[2,1-b]thiazole-2,3-diyl)bis(methylene)bis(ethylcarbamate)] | 13.6 ± 2.03 | 23.7 ± 3.05 | 29.2 ± 2.63 | 11.5 ± 2.63 |  | 5.42 |  | 6.42 |  | 0.38 ± 0.002 | 0.45 ± 0.033 | 0.07 ± 0.0002 | IC50 (breast carcinoma MX-1; Table 6, 72 h): 0.48 ± 0.005 µM; IC50 (colon carcinoma HCT-116; Table 6, 72 h): 0.52 ± 0.025 µM |
| CCNC(=O)OCc1c(COC(=O)NCC)c2sc3ccccc3n2c1-c1ccc(F)c(F)c1 [Compound 19d, (1-(3,4-Difluorophenyl)benzo[d]pyrrolo[2,1-b]thiazole-2,3-diyl)bis(methylene)bis(ethylcarbamate)] | 10.3 ± 1.11 | 19.3 ± 3.44 | 38.5 ± 7.21 | 14.6 ± 3.39 |  | 1.61 |  | 1.47 |  | 0.34 ± 0.008 | 0.31 ± 0.002 | 0.21 ± 0.01 | IC50 (breast carcinoma MX-1; Table 6, 72 h): 1.49 ± 0.04 µM; IC50 (colon carcinoma HCT-116; Table 6, 72 h): 1.1 ± 0.015 µM |
| CCNC(=O)OCc1c(COC(=O)NCC)c2sc3ccccc3n2c1C1CC1 [Compound 19j, (1-Cyclopropylbenzo[d]pyrrolo[2,1-b]thiazole-2,3-diyl)bis(methylene)bis(ethylcarbamate)] | 20.6 ± 1.89 | 24.2 ± 2.96 | 74.5 ± 8.7 | 26.3 ± 4.44 |  | 4.01 |  | 3.18 |  | 0.68 ± 0.004 | 0.54 ± 0.008 | 0.17 ± 0.03 |  |
| CC(C)NC(=O)OCc1c(COC(=O)NC(C)C)c2sc3ccccc3n2c1C1CC1 [Compound 20j, (1-Cyclopropylbenzo[d]pyrrolo[2,1-b]thiazole-2,3-diyl)bis(methylene)bis(iso-propyl-carbamate)] | 20.4 ± 1.65 | 13.4 ± 0.84 | 45.5 ± 6.19 | 9.67 ± 1.06 |  | 7.30 |  | 9.00 |  | 0.73 ± 0.013 | 0.9 ± 0.011 | 0.1 ± 0.01 |  |
| CCNC(=O)OCc1c(COC(=O)NCC)c(-c2ccc(Cl)cc2)n2c1Cc1c(n(C)c3ccccc13)C2 [Compound 27d, [3-(4-Chlorophenyl)-6-methyl-6,11-dihydro-5H-indolizino[6,7-b]indole-1,2-diyl]bis(methylene)bis(ethylcarbamate)] |  |  |  |  |  |  |  |  |  |  |  |  | IC50 (breast carcinoma MX-1; Table 7, 72 h): 1.83 ± 0.082 µM; IC50 [2, 8]: 0.35 ± 0.013 µM; IC50 (colon carcinoma HCT-116; Table 7, 72 h): 1.17 ± 0.009 µM |
| CC(C)NC(=O)OCc1c(COC(=O)NC(C)C)c(-c2ccc(Cl)cc2)n2c1Cc1c(n(C)c3ccccc13)C2 [Compound 28d, [3-(4-Chlorophenyl)-6-methyl-6,11-dihydro-5H-indolizino[6,7-b]indole-1,2-diyl]bis(methylene) (isopropylcarbamate)] |  |  |  |  |  |  |  |  |  |  |  |  | IC50 (breast carcinoma MX-1; Table 7, 72 h): 12.39 ± 0.05 µM; IC50 [2, 8]: 0.437 ± 0.003 µM; IC50 (colon carcinoma HCT-116; Table 7, 72 h): 3.06 ± 0.067 µM |
